The results in this text go back to US12366579B2, “Sulfur-heterocycle exchange chemistry and uses thereof” (University of Virginia Patent Foundation, priority 2019, dated 2025).

Broadly, the IC50 is the midpoint of a concentration-inhibition curve.

One assay deals with T1, human GSTP1 (hGSTP1) (Homo sapiens, UniProt P09211).
T1 construct: FLAG (C); host or cells: HEK293T, transient transfection; soluble proteome used unpurified
Nature of the assay: Gel-based competitive chemical proteomic screen with HHS-482, recombinant hGSTP1-HEK293T soluble proteomes. Format: binding. The settings on record: fragment 50 μM, 30 min, 37° C. As for the experimental part:
Gel-Based Chemical Proteomic Assay
Cell pellets were lysed in PBS and fractionated (100,000×g, 45 min, 4° C.) to generate soluble and membrane fractions. Protein concentrations were determined using Bio-Rad DC protein assay (Bio-Rad Laboratories, Inc., Hercules, California, United States of America), and adjusted to 1 mgml^−1 in PBS. Proteome samples (49 μl aliquots) were treated with DMSO vehicle or indicated concentration of SuTEx fragment (1 μL, 50× stock in DMSO) for 30 min at 37° C. Samples were then treated with HHS-482 probe (1 μL, 2.5 mM stock in DMSO) for 30 min at 37° C. Probe labeled samples were conjugated to rhodamine-azide (1 μL, 1.25 mM stock; final concentration of 25 μM) by copper-catalyzed azide-alkyne cycloadditions (CuAAC) for 1 h at room temperature followed by SDS-PAGE and in-gel fluorescence scanning as previously described^57.

A further assay deals with T2, GSTP1 Y8 (Homo sapiens, UniProt P09211).
T2 construct: endogenous in cells; host or cells: DM93 melanoma cells (SILAC)
Nature of the assay: Quantitative chemical proteomics of live SILAC DM93 cells treated with SuTEx fragments. Format: cell-based. As for the experimental part:
Live Cell Evaluation of Sulfonyl-Triazole Fragments
Cells grown to ˜90% confluency in 10 cm plates were treated with DMSO vehicle or SuTEx fragment (10 μl of 1,000× stock) in serum-free media for the indicated concentrations and times at 37° C. with 5% CO2. After treatment, cells were washed with cold PBS twice before collection and preparation for gel-based chemical proteomic evaluation as described above. For LC-MS studies, protein concentrations were normalized to 2.3 mg ml^−1 and 432 μl (for 1 mg final protein amount) were used for sample preparation as detailed below.
(§1) Heavy and light proteomes (432 μl of each) were diluted to 2.3 mg ml^−1 in PBS and sample aliquots (432 μl) were treated with SuTEx fragment at the indicated concentrations (5 μl, 100× stock in DMSO), mixed gently and incubated for 30 min at 37° C. Samples were then treated with HHS-482 (5 μL, 5 mM stock in DMSO) for 30 min at 37° C. Probe-modified proteomes were conjugated to desthiobiotin-PEG3-azide followed by enrichment of probe-modified peptides for nano-electrospray ionization-LC-MS/MS analyses as previously described^57.
Next, SILAC DM93 cells were treated with JWB152 or JWB198 to determine whether these SuTEx fragments could ligand Y8 of endogenous GSTP1 in living systems (50 μM compound, 1.5 hr, 37° C.). Cells were pretreated with DMSO vehicle or SuTEx fragments followed by cells lysis, HHS-482 labeling of proteomes, and quantitative chemical proteomics.

The test system of a further assay is DM93 soluble proteomes. The assay can be described thus: Proteome-wide competitive chemical proteomics of SuTEx fragments vs HHS-482. The settings on record: fragment 50 μM, 30 min, 37° C. It counts as binding, human. As for the experimental part:
as §1
The chemical proteomic method for functional tyrosine profiling^72 was tailored to investigate AG/LG effects on SuTEx fragment reactivity in complex proteomes. In brief, isotopically light and heavy soluble proteomes from DM93 melanoma cells cultured by stable isotopic labeling by amino acids in cell culture (SILAC^80) media were used for quantitative liquid chromatography-mass spectrometry (LC-MS) studies. Light and heavy DM93 proteomes were treated with dimethyl sulfoxide (DMSO) vehicle or SuTEx fragment (50 μM, 30 min, 37° C.), respectively, followed by labeling with the tyrosine-reactive probe HHS-482 described hereinabove (50 μM, 30 min, 37° C.) and copper-catalyzed azide-alkyne cycloaddition (CuAAC) conjugation of a desthiobiotin-azide enrichment tag. Proteomes were digested with trypsin protease, HHS-482-modified peptides enriched by avidin chromatography and analyzed by high-resolution LC-MS/MS and bioinformatics as described hereinabove.
To evaluate substituent effects on proteome activity, reactivity profiles of each respective SuTEx fragment were compared across >1500 total distinct HHS-482-modified tyrosine sites from >650 detected proteins. Fragments were screened across independent biological replicates (n=2-3) and high-quality tyrosine site annotations were identified by detection in at least a single biological replicate from each fragment dataset, probe-specific enrichment (HHS-482 probe/DMSO SILAC ratio (SR)>5), and quality control confidence criteria of ≥300 Byonic score^31, […] protein false discovery rate (FDR), and ≤5 ppm mass accuracy in order to minimize the potential for false positives^72. SILAC ratios (SR) from competitive studies (Light-DMSO/Heavy-fragment) were used to identify fragment-competed tyrosine residues as sites showing >75% reduction in enrichment by HHS-482 compared with DMSO vehicle control (i.e. liganded tyrosines, SR>4). In total, 305 liganded tyrosines on 213 distinct proteins were identified, corresponding to ˜30% and ˜44% of total quantified tyrosines and proteins, respectively. […]

For assay [1], the target named is T3, recombinant GSTP1 lysates (Homo sapiens, UniProt P09211).
T3 construct: FLAG (C); host or cells: HEK293T, transient transfection; soluble proteome used unpurified
The assay can be described thus: GSTP1 biochemical substrate assay (GSH conjugation to BDNB). Particulars: inhibitor 30 min at 37° C.; n=3; read-out: IC50, in vitro potency against GSTP1 by GSH substrate assay. The protocol: GSTP1 Biochemical Substrate Assay
Recombinant GSTP1-HEK293T soluble cell proteomes were diluted to 1 mg ml^−1 in assay buffer (100 mM NaH2PO4, pH 7.0). Samples were treated with inhibitor at indicated concentrations for 30 min at 37° C. GSH stock solution (250 mM in water) was diluted to 4 mM in assay buffer and 25 μl of diluted GSH solution was added to each sample. A substrate stock solution of 75 mM 1-bromo-2,4-dinitrobenzene […] in ethanol was diluted to 2 mM in assay buffer. Samples (25 μl) were aliquoted into a 96-well plate and spun briefly via centrifuge. Next, 50 μl of 2 mM BDNB was added to each well and the reaction was monitored in kinetic mode by measuring absorbance at 340 nm for 10 min on a BMG Labtech CLARIOstar plate reader (BMG Labtech, Cary, North Carolina, United States of America).

A further assay addresses EDC3 (Homo sapiens, UniProt Q96F86). The assay can be described thus: Chemical proteomics analysis of EDC3 using EKT-231 and HHS-465. Format: binding. Particulars: FIG. 46B. The text has this:
FIGS. 46A and 46B: Inhibition of mRNA decapping protein 3 (EDC3) Y475 by EKT-231. FIG. 46A is a schematic drawing of the chemical structure of EKT-231. FIG. 46B is a series of graphs showing the chemical proteomics analysis of EDC3 using EKT-231 and HHS-465.
In addition, SuTEx fragment EKT231 (see FIG. 46A) modifies EDC3 at tyrosine 475.

T2 sequence (P09211 whole entry): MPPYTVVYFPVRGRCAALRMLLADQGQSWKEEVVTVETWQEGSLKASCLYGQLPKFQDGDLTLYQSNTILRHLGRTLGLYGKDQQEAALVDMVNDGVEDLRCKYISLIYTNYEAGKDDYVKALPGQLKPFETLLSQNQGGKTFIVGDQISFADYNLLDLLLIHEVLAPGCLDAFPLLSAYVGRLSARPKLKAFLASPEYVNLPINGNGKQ
Sequence of EDC3 (Q96F86 whole entry): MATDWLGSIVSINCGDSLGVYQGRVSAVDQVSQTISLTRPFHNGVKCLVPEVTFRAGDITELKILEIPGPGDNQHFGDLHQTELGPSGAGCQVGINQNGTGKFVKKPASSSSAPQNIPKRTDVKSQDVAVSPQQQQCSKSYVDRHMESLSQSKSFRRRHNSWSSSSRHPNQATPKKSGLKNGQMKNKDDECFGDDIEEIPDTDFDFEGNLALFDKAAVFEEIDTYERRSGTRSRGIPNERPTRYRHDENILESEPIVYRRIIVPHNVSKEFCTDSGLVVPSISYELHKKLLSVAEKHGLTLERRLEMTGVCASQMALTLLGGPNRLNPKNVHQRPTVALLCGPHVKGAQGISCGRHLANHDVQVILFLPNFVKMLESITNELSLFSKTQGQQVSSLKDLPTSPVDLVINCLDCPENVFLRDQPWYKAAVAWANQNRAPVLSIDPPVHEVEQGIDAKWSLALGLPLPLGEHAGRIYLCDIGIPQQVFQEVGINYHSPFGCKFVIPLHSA
T1 sequence (P09211 whole entry): as the sequence (P09211 whole entry) above
T3 sequence (P09211 whole entry): as above

Turning to `O=S(=O)(c1ccc2ccccc2c1)n1cnc(-c2ccncc2)n1` [JWB198, 4-(1-(Naphthalen-2-ylsulfonyl)-1H-1,2,4-triazol-3-yl)pyridine], the “block of HHS-482 labeling of GSTP1” value at human GSTP1 (hGSTP1) is “block HHS-482 labeling to levels comparable with Y8F mutant”. The “blockade of HHS-482 labeling of native GSTP1 Y8 in live cells” value on GSTP1 Y8 (50 μM compound, 1.5 hr, 37° C.) is on record as around 70%. Further, the “SILAC ratio (SR) at other GSTP1 probe-modified sites” value on GSTP1 Y8 (Y50, Y64, Y80, Y119, and Y199, 50 μM) is around 1. The “liganded tyrosine frequency (SR>4)” value with DM93 soluble proteomes was 1.3%. For the same compound, the IC50 in assay [1] is 16 µM.
In the case of `N#Cc1ccc(S(=O)(=O)n2cc(-c3cccc(Cl)c3)nn2)cc1` [EKT231], the “tyrosine residue of EDC3 modified” value at EDC3 is listed as 475.
